Earlier results in patent EP1017727B1, “COMPOSITION AND PHARMACEUTICAL PREPARATION CONTAINING SAME FOR THE TREATMENT OF HERPES AND RELATED VIRAL INFECTIONS” (priority 1997, dated 1999).
Converted amounts (≈) assume the structure as drawn.

Tested on: HSV-1

| Compound | IC50 against HSV-1 |
| --- | --- |
| geponin | 25 µg/mL |
| O=Cc1cc(O)c(O)c(O)c1 [gallic aldehyde] | 12.5 µg/mL (≈ 81.1 µM) |
